Test results as given in patent US11202766B1, “Pharmaceutical compositions including hydrocodone bitartrate and guaifenesin” (priority 2019, dated 2021).

Assay: clinical
Conditions: for Tmax / half-life: Mean; for Kel of Hydrocodone bitartrate, Mean: oral; for half-life: t1/2 of Hydrocodone bitartrate
Description: A randomized, open-label, balanced, two-treatment, two-period, two sequence, single-dose, two-way crossover oral food effect study was conducted comparing administration of rapidly dissolving pharmaceutical composition tablets including 5 mg hydrocodone bitartrate and 400 mg guaifenesin per tablet to healthy subjects under fed and fasting conditions. The objective of this study was to evaluate the effect of food (high fat, high calorie breakfast) on the rate and extent of absorption of a single oral dose of the rapidly dissolving pharmaceutical composition including 5 mg hydrocodone bitartrate and 400 mg guaifenesin.
Healthy adult participants were randomized into Treatment A or Treatment B during two study periods (Period 1 and Period 2). Participants received one tablet of the rapidly dissolving pharmaceutical composition (including 5 mg hydrocodone bitartrate and 400 mg guaifenesin per tablet) in each study period with a seven-day (washout) interval between study periods. Participants randomized to Treatment A consumed a high fat, high calorie breakfast (1000 kcal) 30 minutes prior to dosing. Participants randomized to Treatment B fasted overnight and at the time of dosing. Participants were housed at the investigative site not less than 10.5 hours pre-dose until 24 hours post-dose in each period.
Twenty-one blood samples were collected from each subject during each study period. The venous blood samples (9 mL each) were drawn at pre-dose [(0.00) within 1.00 hour prior to dosing] and at 0.16, 0.33, 0.50, 0.66, 0.83, 1.00, 1.25, 1.50, 2.00, 3.00, 4.00, 5.00, 6.00, 7.00, 8.00, 10.00, 12.00, 16.00, 20.00 and 24.00 hours post-dose. After the collection of blood samples from all the subjects at each time point, samples were centrifuged at 4000 RPM for 10 minutes at 5° C. All plasma samples were then transferred into three polypropylene tubes. The plasma samples were stored at −20±10° C. for a maximum period of 12.0 hours.
Pharmacokinetic parameters were measured for fed and fasting conditions of subjects for both hydrocodone bitartrate and guaifenesin. Plasma samples were assayed for hydrocodone and guaifenesin using an API 4000® LC-MS/MS System, commercially available from AB Sciex LP, Concord, Ontario, Canada. During analysis, standard and quality control samples were distributed throughout each batch of study samples analyzed. No access to the randomization schedule was available until all of the analysis was completed. All the values below the limit of quantification (LOQ) were set to “zero” for all pharmacokinetic and statistical calculations. Any missing sample was reported as “M”. Incurred sample reanalysis was performed as per the current version of ICON SOP BC06, “Incurred Sample Reanalysis Procedures”.
The pharmacokinetic parameters for hydrocodone and guaifenesin in plasma were computed using SAS™ v9.3 software, commercially available from SAS Institute, Inc., Cary, N.C., USA.
The plasma pharmacokinetic parameters were determined for Cmax, Tmax, AUC0→t, and AUC0→∞. The Cmax and Tmax values were directly determined from the plasma concentration versus time curves. The AUC0→t was calculated by the linear trapezoidal rule. The AUC0→∞ was estimated by summing the area from AUC0→t and […]. The half life, t1/2, was calculated using the formula t1/2=ln 2/Kel, wherein Kel is the slope of the terminal portion of the plasma concentration versus time curve, obtained by linear regression. Natural Logarithmic transformation was done before data analysis for Cmax, AUC0→t, and AUC0→∞. Tmax, t1/2, and Kel were analyzed without transformation.
A paired t-test was used to assess effects between the two arms of the study. Intra-subject variability in terms of the overall percentage coefficient of variation (% CV) were also evaluated for each PK parameter. […] All values below the limit of quantification (LOQ) were set to “zero” for all pharmacokinetic and statistical calculations.

[1] = fed:fasting, ln-transformed data

Compound | t1/2 of Guaifenesin, Mean (human, in vivo, po) [h] | Tmax (human, in vivo, po, Tmax of Guaifenesin) [h] | Kel of Hydrocodone bitartrate, Mean (Fasting Condition (Treatment B), one tablet 5 mg hydrocodone bitartrate/400 mg guaifenesin) [h⁻¹] | Kel of Hydrocodone bitartrate, Mean (Fed Condition (Treatment A), one tablet 5 mg hydrocodone bitartrate/400 mg guaifenesin) [h⁻¹] | Ratio Between Treatment A: Treatment B, Kel of Hydrocodone Bitartrate, Mean (fed:fasting) | Ratio Between Treatment A: Treatment B, Tmax of Hydrocodone Bitartrate, Mean (fed:fasting) | Ratio Between Treatment A: Treatment B, t1/2 of Hydrocodone Bitartrate, Mean (fed:fasting) | Ratio Between Treatment A: Treatment B, *AUC0→t of Hydrocodone Bitartrate, Mean [1] | Ratio Between Treatment A: Treatment B, *AUC0→∞ of Hydrocodone Bitartrate, Mean [1] | Ratio Between Treatment A: Treatment B, *Cmax of Hydrocodone Bitartrate, Mean [1] | Tmax (human, in vivo, po, Tmax of Hydrocodone bitartrate, Fasting Condition (Treatment B), one tablet 5 mg hydrocodone bitartrate/400 mg guaifenesin) [h] | Tmax (human, in vivo, po, Tmax of Hydrocodone bitartrate, Fed Condition (Treatment A), one tablet 5 mg hydrocodone bitartrate/400 mg guaifenesin) [h] | half-life (human, in vivo, po, Fasting Condition (Treatment B), one tablet 5 mg hydrocodone bitartrate/400 mg guaifenesin) [h] | half-life (human, in vivo, po, Fed Condition (Treatment A), one tablet 5 mg hydrocodone bitartrate/400 mg guaifenesin) [h]
COc1ccccc1OCC(O)CO (centres unmarked) [Guaifenesin, guaifenesin] | 1.05 | 0.64 |  |  |  |  |  |  |  |  |  |  |  | 
COc1ccc2c3c1O[C@H]1C(=O)CC[C@H]4[C@@H](C2)N(C)CC[C@]314.O=C(O)C(O)C(O)C(=O)O [Hydrocodone bitartrate, hydrocodone bitartrate] |  |  | 0.14 | 0.14 | 0.98 | 1.51 | 1.11 | 1.02 | 1.02 | 1.03 | 1.61 | 2.08 | 4.95 | 5.29
